According to US20140349962A1, “RAPID TWO-STEP SYNTHESIS OF ANTI-COAGULANTS” (Massachusetts Institute of Technology, priority 2013, published 2014):

Tests used:
[1] = biological target: anti-thrombin III (ATIII) (Homo sapiens, UniProt P01008); conditions: compared to in vitro modified commercial heparin
Method: PAP^35S-radiolabeled N-deacetylate N-sulfate derivatives of non-sulfated N-acetyl heparosan (HS) polysaccharides (10, 000 counts) was reacted with […] ATIII. Complex formation was analyzed by non-denaturing gel electrophoresis (4% polyacrylamide). The mobility of radiolabeled N-deacetylate N-sulfate derivatives of non-sulfated N-acetyl heparosan (HS) polysaccharides was compared with and without ATIII.
Heparin-ATIII binding buffer contained 12% glycerol, 20 mM Tris-HCl (pH 7.9), 100 mM KCl, 1 mM EDTA, and 1 mM DTT. For a typical 20 μl binding reaction, radiolabeled polysaccharide (10,000 cpm) was mixed with AT-III (1 μg) in the binding buffer. The reaction mixture was incubated at room temperature (23° C.) for 20 min and was then applied to a 4.5% native polyacrylamide gel (with 0.1% of bis-acrylamide). The gel buffer was 10 mM Tris (pH 7.4) and 1 mM EDTA, and the electrophoresis buffer was 40 mM Tris (pH 8.0), 40 mM acetic acid, 1 mM EDTA. The gel was run at 6 volts/cm for 1-2 hours with an SE 250 Mighty Small II gel apparatus (Hoefer Scientific Instruments, San Francisco). After electrophoresis, the gel was transferred to 3 MM paper and dried under vacuum. The dried gel was autoradiographed by a PhosphorImager 445S1 (Molecular Dynamics, Sunnyvale, Calif.). The image was analyzed with NIH Image 1.60 and band intensities were evaluated.

[2] = tested on: Human factor Xa; conditions: approximately; heparin-dependent factor Xa inhibition, commercial heparin as standard
Method: Human factor Xa (10.4 mg/ml 50% glycerol, 820 units/mg) (Hematologic Technologies, Essex Junction, Vt.) was used for assay. Factor Xa was diluted 1:200 with PBS containing 1 mg of bovine serum albumin (4 units/ml and 15 units/ml, respectively). ATIII (2.5 mg/ml) (GlycoMed, CA) was diluted 1:200 to give a 2×10^7 M stock solution. The chromogenic substrate S-2765 was from Chromogenix (West Chester, Ohio) and the stock solution of 1 mM with 1 mg/ml Polybrene in water was prepared. Heparin (174 international units/mg, Sigma) was used as a standard. The N-deacetylated N-sulfated polysaccharide product was used for factor Xa studies (10 ng). The protocol involved adding 25 μl of ATIII (2×10 7 M) to 25 μl of a serial dilution of heparin standards or N-deacetylated N-sulfated polysaccharide in Tris-EDTA (50 mM Tris, 7.5 mM EDTA, and 175 mM NaCl (pH 8.4)) buffer. The reaction was incubated at 37° C. for 75 seconds. Factor Xa (25 μl, 4 units/ml) was added. After incubating at 37° C. for 195 seconds, 25 μl of S-2765 was added. The absorbance at 405 nm was read every minute for 10 minutes using a Beckman UV spectrometer.

[3] = biological target: PF4 (Homo sapiens, UniProt P02776); conditions: expected because compound is free of 2-O sulfated iduronic acid residues
Sequence of PF4 (P02776 32-101): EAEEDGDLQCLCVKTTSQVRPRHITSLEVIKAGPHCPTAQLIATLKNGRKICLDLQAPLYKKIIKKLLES

Sequence of anti-thrombin III (ATIII) (P01008 33-464, species assumed): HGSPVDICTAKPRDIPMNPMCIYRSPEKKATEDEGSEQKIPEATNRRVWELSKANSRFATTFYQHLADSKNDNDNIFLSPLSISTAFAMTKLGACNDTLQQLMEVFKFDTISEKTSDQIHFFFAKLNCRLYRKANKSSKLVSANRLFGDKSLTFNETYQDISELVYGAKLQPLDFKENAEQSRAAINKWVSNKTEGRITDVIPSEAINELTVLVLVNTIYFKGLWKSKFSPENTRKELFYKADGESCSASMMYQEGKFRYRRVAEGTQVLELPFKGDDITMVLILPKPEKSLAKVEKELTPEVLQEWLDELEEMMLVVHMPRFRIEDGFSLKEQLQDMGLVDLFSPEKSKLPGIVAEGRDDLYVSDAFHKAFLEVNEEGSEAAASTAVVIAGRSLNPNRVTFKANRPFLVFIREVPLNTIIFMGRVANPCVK

N-deacetylate N-sulfate derivatives of non-sulfated N-acetyl heparosan (HS) polysaccharide [Formula I]
percentage of compound bound to ATIII compared to commercial heparin [1]: greater percentage
specific activity relative to commercial heparin [2]: 4-5 times
ability to bind to PF4 [3]: reduced ability to bind to PF4
